According to US10485235B2, “Aryloxypyrimidinyl ethers as herbicides” (FMC Corporation, priority 2015, dated 2019):

System: pigweed (Amaranthus retroflexus)
Test: Test A preemergence, pigweed
Assay type: in vivo
Details: Preemergence, 125 g ai/ha; 0 to 100 scale (0 no effect, 100 complete control)
Summary of the method: (§1)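 Approximately 10-day greenhouse assay. Formulated chemical (non-phytotoxic solvent plus surfactant) applied preemergence to soil over seeds or postemergence to plants of 2 to 10 cm. Endpoint: visual percent control, 0–100.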

| Structure (SMILES) | Plant response rating, Pigweed |
| --- | --- |
| Fc1cccc(Oc2ncc(Cl)cn2)c1OC/C=C/C(F)(F)F [Compound 25] | 100 |

Same assay, conditions: Preemergence, 500 g ai/ha; 0 to 100 scale (0 no effect, 100 complete control)

| Structure (SMILES) | Plant response rating, Pigweed |
| --- | --- |
| Fc1cccc(Oc2ncc(Cl)cn2)c1OC/C=C/C(F)(F)F [Compound 25] | 100 |

System: foxtail, giant (giant foxtail, Setaria faberii)
Test: Test A postemergence, giant foxtail
Assay type: in vivo
Details: 125 g ai/ha, postemergence; 0 to 100 scale, 0 is no effect, 100 is complete control; approximately 10 days
Summary of the method: as §1

| Structure (SMILES) | Plant response rating, Foxtail, Giant |
| --- | --- |
| Fc1cccc(Oc2ncc(Cl)cn2)c1OC/C=C/C(F)(F)F [Compound 25] | 30 |

Same assay, conditions: 500 g ai/ha, postemergence; 0 to 100 scale, 0 is no effect, 100 is complete control; approximately 10 days

| Structure (SMILES) | Plant response rating, Foxtail, Giant |
| --- | --- |
| Fc1cccc(Oc2ncc(Cl)cn2)c1OC/C=C/C(F)(F)F [Compound 25] | 80 |

System: barnyardgrass (Echinochloa crus-galli)
Test: Test A preemergence, barnyardgrass
Assay type: in vivo
Details: Preemergence, 125 g ai/ha; 0 to 100 scale (0 no effect, 100 complete control)
Summary of the method: as §1

| Structure (SMILES) | Plant response rating, Barnyardgrass |
| --- | --- |
| Fc1cccc(Oc2ncc(Cl)cn2)c1OC/C=C/C(F)(F)F [Compound 25] | 90 |

Same assay, conditions: Preemergence, 500 g ai/ha; 0 to 100 scale (0 no effect, 100 complete control)

| Structure (SMILES) | Plant response rating, Barnyardgrass |
| --- | --- |
| Fc1cccc(Oc2ncc(Cl)cn2)c1OC/C=C/C(F)(F)F [Compound 25] | 100 |

System: ducksalad (Heteranthera limosa)
Test: Test B flooded paddy test, ducksalad
Assay type: in vivo
Details: 250 g ai/ha, Flood; visual rating after 13 to 15 days; scale 0 to 100, 0 is no effect, 100 is complete control
Summary of the method: (§2)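 Visual ratings, 0 = no effect to 100 = complete control, versus controls after 13 to 15 days in greenhouse. Test compounds were added to paddy water kept 3 cm over the soil surface, on plants at 2-leaf stage.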

| Structure (SMILES) | Plant response rating, Ducksalad |
| --- | --- |
| Fc1cccc(Oc2ncc(Cl)cn2)c1OC/C=C/C(F)(F)F [Compound 25] | 100 |

System: kochia (Kochia scoparia)
Test: Test A postemergence, kochia
Assay type: in vivo
Details: 125 g ai/ha, postemergence; 0 to 100 scale, 0 is no effect, 100 is complete control; approximately 10 days
Summary of the method: as §1

| Structure (SMILES) | Plant response rating, Kochia |
| --- | --- |
| Fc1cccc(Oc2ncc(Cl)cn2)c1OC/C=C/C(F)(F)F [Compound 25] | 90 |

Same assay, conditions: 500 g ai/ha, postemergence; 0 to 100 scale, 0 is no effect, 100 is complete control; approximately 10 days

| Structure (SMILES) | Plant response rating, Kochia |
| --- | --- |
| Fc1cccc(Oc2ncc(Cl)cn2)c1OC/C=C/C(F)(F)F [Compound 25] | 100 |

System: barnyardgrass (Echinochloa crus-galli)
Test: Test A postemergence, barnyardgrass
Assay type: in vivo
Details: 125 g ai/ha, postemergence; 0 to 100 scale, 0 is no effect, 100 is complete control; approximately 10 days
Summary of the method: as §1

| Structure (SMILES) | Plant response rating, Barnyardgrass |
| --- | --- |
| Fc1cccc(Oc2ncc(Cl)cn2)c1OC/C=C/C(F)(F)F [Compound 25] | 40 |

Same assay, conditions: 500 g ai/ha, postemergence; 0 to 100 scale, 0 is no effect, 100 is complete control; approximately 10 days

| Structure (SMILES) | Plant response rating, Barnyardgrass |
| --- | --- |
| Fc1cccc(Oc2ncc(Cl)cn2)c1OC/C=C/C(F)(F)F [Compound 25] | 90 |

System: galium (catchweed bedstraw, Galium aparine)
Test: Test A postemergence, galium
Assay type: in vivo
Details: 125 g ai/ha, postemergence; 0 to 100 scale, 0 is no effect, 100 is complete control; approximately 10 days
Summary of the method: as §1

| Structure (SMILES) | Plant response rating, Galium |
| --- | --- |
| Fc1cccc(Oc2ncc(Cl)cn2)c1OC/C=C/C(F)(F)F [Compound 25] | 50 |

Same assay, conditions: 500 g ai/ha, postemergence; 0 to 100 scale, 0 is no effect, 100 is complete control; approximately 10 days

| Structure (SMILES) | Plant response rating, Galium |
| --- | --- |
| Fc1cccc(Oc2ncc(Cl)cn2)c1OC/C=C/C(F)(F)F [Compound 25] | 100 |

System: kochia (Kochia scoparia)
Test: Test A preemergence, kochia
Assay type: in vivo
Details: Preemergence, 125 g ai/ha; 0 to 100 scale (0 no effect, 100 complete control)
Summary of the method: as §1

| Structure (SMILES) | Plant response rating, Kochia |
| --- | --- |
| Fc1cccc(Oc2ncc(Cl)cn2)c1OC/C=C/C(F)(F)F [Compound 25] | 30 |

Same assay, conditions: Preemergence, 500 g ai/ha; 0 to 100 scale (0 no effect, 100 complete control)

| Structure (SMILES) | Plant response rating, Kochia |
| --- | --- |
| Fc1cccc(Oc2ncc(Cl)cn2)c1OC/C=C/C(F)(F)F [Compound 25] | 100 |

System: foxtail, giant (giant foxtail, Setaria faberii)
Test: Test A preemergence, giant foxtail
Assay type: in vivo
Details: Preemergence, 125 g ai/ha; 0 to 100 scale (0 no effect, 100 complete control)
Summary of the method: as §1

| Structure (SMILES) | Plant response rating, Foxtail, Giant |
| --- | --- |
| Fc1cccc(Oc2ncc(Cl)cn2)c1OC/C=C/C(F)(F)F [Compound 25] | 100 |

Same assay, conditions: Preemergence, 500 g ai/ha; 0 to 100 scale (0 no effect, 100 complete control)

| Structure (SMILES) | Plant response rating, Foxtail, Giant |
| --- | --- |
| Fc1cccc(Oc2ncc(Cl)cn2)c1OC/C=C/C(F)(F)F [Compound 25] | 100 |

System: barnyardgrass (Echinochloa crus-galli)
Test: Test B flooded paddy test, barnyardgrass
Assay type: in vivo
Details: 250 g ai/ha, Flood; visual rating after 13 to 15 days; scale 0 to 100, 0 is no effect, 100 is complete control
Summary of the method: as §2

| Structure (SMILES) | Plant response rating, Barnyardgrass |
| --- | --- |
| Fc1cccc(Oc2ncc(Cl)cn2)c1OC/C=C/C(F)(F)F [Compound 25] | 0 |

System: ryegrass, Italian (Italian ryegrass, Lolium multiflorum)
Test: Test A postemergence, Italian ryegrass
Assay type: in vivo
Details: 125 g ai/ha, postemergence; 0 to 100 scale, 0 is no effect, 100 is complete control; approximately 10 days
Summary of the method: as §1

| Structure (SMILES) | Plant response rating, Ryegrass, Italian |
| --- | --- |
| Fc1cccc(Oc2ncc(Cl)cn2)c1OC/C=C/C(F)(F)F [Compound 25] | 0 |

Same assay, conditions: 500 g ai/ha, postemergence; 0 to 100 scale, 0 is no effect, 100 is complete control; approximately 10 days

| Structure (SMILES) | Plant response rating, Ryegrass, Italian |
| --- | --- |
| Fc1cccc(Oc2ncc(Cl)cn2)c1OC/C=C/C(F)(F)F [Compound 25] | 70 |

System: blackgrass (Alopecurus myosuroides)
Test: Test A postemergence, blackgrass
Assay type: in vivo
Details: 125 g ai/ha, postemergence; 0 to 100 scale, 0 is no effect, 100 is complete control; approximately 10 days
Summary of the method: as §1

| Structure (SMILES) | Plant response rating, Blackgrass |
| --- | --- |
| Fc1cccc(Oc2ncc(Cl)cn2)c1OC/C=C/C(F)(F)F [Compound 25] | 20 |

Same assay, conditions: 500 g ai/ha, postemergence; 0 to 100 scale, 0 is no effect, 100 is complete control; approximately 10 days

| Structure (SMILES) | Plant response rating, Blackgrass |
| --- | --- |
| Fc1cccc(Oc2ncc(Cl)cn2)c1OC/C=C/C(F)(F)F [Compound 25] | 80 |

System: ragweed (common ragweed, Ambrosia elatior)
Test: Test A preemergence, ragweed
Assay type: in vivo
Details: Preemergence, 125 g ai/ha; 0 to 100 scale (0 no effect, 100 complete control)
Summary of the method: as §1

| Structure (SMILES) | Plant response rating, Ragweed |
| --- | --- |
| Fc1cccc(Oc2ncc(Cl)cn2)c1OC/C=C/C(F)(F)F [Compound 25] | 0 |

Same assay, conditions: Preemergence, 500 g ai/ha; 0 to 100 scale (0 no effect, 100 complete control)

| Structure (SMILES) | Plant response rating, Ragweed |
| --- | --- |
| Fc1cccc(Oc2ncc(Cl)cn2)c1OC/C=C/C(F)(F)F [Compound 25] | 20 |

System: sedge, umbrella (small-flower umbrella sedge, Cyperus difformis)
Test: Test B flooded paddy test, umbrella sedge
Assay type: in vivo
Details: 250 g ai/ha, Flood; visual rating after 13 to 15 days; scale 0 to 100, 0 is no effect, 100 is complete control
Summary of the method: as §2

| Structure (SMILES) | Plant response rating, Sedge, Umbrella |
| --- | --- |
| Fc1cccc(Oc2ncc(Cl)cn2)c1OC/C=C/C(F)(F)F [Compound 25] | 75 |

System: ragweed (common ragweed, Ambrosia elatior)
Test: Test A postemergence, ragweed
Assay type: in vivo
Details: 125 g ai/ha, postemergence; 0 to 100 scale, 0 is no effect, 100 is complete control; approximately 10 days
Summary of the method: as §1

| Structure (SMILES) | Plant response rating, Ragweed |
| --- | --- |
| Fc1cccc(Oc2ncc(Cl)cn2)c1OC/C=C/C(F)(F)F [Compound 25] | 0 |

Same assay, conditions: 500 g ai/ha, postemergence; 0 to 100 scale, 0 is no effect, 100 is complete control; approximately 10 days

| Structure (SMILES) | Plant response rating, Ragweed |
| --- | --- |
| Fc1cccc(Oc2ncc(Cl)cn2)c1OC/C=C/C(F)(F)F [Compound 25] | 0 |

System: rice (Oryza sativa)
Test: Test B flooded paddy test, rice
Assay type: in vivo
Details: 250 g ai/ha, Flood; visual rating after 13 to 15 days; scale 0 to 100, 0 is no effect, 100 is complete control
Summary of the method: as §2

| Structure (SMILES) | Plant response rating, Rice |
| --- | --- |
| Fc1cccc(Oc2ncc(Cl)cn2)c1OC/C=C/C(F)(F)F [Compound 25] | 0 |

System: corn (Zea mays)
Test: Test A postemergence, corn
Assay type: in vivo
Details: 125 g ai/ha, postemergence; 0 to 100 scale, 0 is no effect, 100 is complete control; approximately 10 days
Summary of the method: as §1

| Structure (SMILES) | Plant response rating, Corn |
| --- | --- |
| Fc1cccc(Oc2ncc(Cl)cn2)c1OC/C=C/C(F)(F)F [Compound 25] | 10 |

Same assay, conditions: 500 g ai/ha, postemergence; 0 to 100 scale, 0 is no effect, 100 is complete control; approximately 10 days

| Structure (SMILES) | Plant response rating, Corn |
| --- | --- |
| Fc1cccc(Oc2ncc(Cl)cn2)c1OC/C=C/C(F)(F)F [Compound 25] | 20 |

System: ryegrass, Italian (Italian ryegrass, Lolium multiflorum)
Test: Test A preemergence, Italian ryegrass
Assay type: in vivo
Details: Preemergence, 125 g ai/ha; 0 to 100 scale (0 no effect, 100 complete control)
Summary of the method: as §1

| Structure (SMILES) | Plant response rating, Ryegrass, Italian |
| --- | --- |
| Fc1cccc(Oc2ncc(Cl)cn2)c1OC/C=C/C(F)(F)F [Compound 25] | 60 |

Same assay, conditions: Preemergence, 500 g ai/ha; 0 to 100 scale (0 no effect, 100 complete control)

| Structure (SMILES) | Plant response rating, Ryegrass, Italian |
| --- | --- |
| Fc1cccc(Oc2ncc(Cl)cn2)c1OC/C=C/C(F)(F)F [Compound 25] | 100 |

System: pigweed (Amaranthus retroflexus)
Test: Test A postemergence, pigweed
Assay type: in vivo
Details: 125 g ai/ha, postemergence; 0 to 100 scale, 0 is no effect, 100 is complete control; approximately 10 days
Summary of the method: as §1

| Structure (SMILES) | Plant response rating, Pigweed |
| --- | --- |
| Fc1cccc(Oc2ncc(Cl)cn2)c1OC/C=C/C(F)(F)F [Compound 25] | 50 |

Same assay, conditions: 500 g ai/ha, postemergence; 0 to 100 scale, 0 is no effect, 100 is complete control; approximately 10 days

| Structure (SMILES) | Plant response rating, Pigweed |
| --- | --- |
| Fc1cccc(Oc2ncc(Cl)cn2)c1OC/C=C/C(F)(F)F [Compound 25] | 70 |

System: wheat (Triticum aestivum)
Test: Test A postemergence, wheat
Assay type: in vivo
Details: 125 g ai/ha, postemergence; 0 to 100 scale, 0 is no effect, 100 is complete control; approximately 10 days
Summary of the method: as §1

| Structure (SMILES) | Plant response rating, Wheat |
| --- | --- |
| Fc1cccc(Oc2ncc(Cl)cn2)c1OC/C=C/C(F)(F)F [Compound 25] | 0 |

Same assay, conditions: 500 g ai/ha, postemergence; 0 to 100 scale, 0 is no effect, 100 is complete control; approximately 10 days

| Structure (SMILES) | Plant response rating, Wheat |
| --- | --- |
| Fc1cccc(Oc2ncc(Cl)cn2)c1OC/C=C/C(F)(F)F [Compound 25] | 20 |
